Where a name gives a salt, the structure may show the parent alone. Read-outs that look alike come from different tables or passages of the source.
Assays:
[1] = Pharmacokinetic parameters in male Sprague Dawley rats (intravenous and oral administration); assay type: in vivo; details: dose per compound (mg/kg); for bioavailability: rat; for Vd: read-out: Vdss
Method: Pharmacokinetic parameters were determined in male Sprague Dawley rats (Charles River, UK, 250-350 g; or Vital River Laboratory Animal Technology Co Ltd, Beijing, China, 7-9 weeks old). Animals were individually housed during the study and maintained under a 12 h light/dark cycle. Animals had free access to food and water except that some orally dosed animals were food deprived overnight prior to the study.
For intravenous administration, compounds were formulated as a solution in water or DMSO:PBS [10:90] in 2 mL/kg dosing volume and administered via tail vein. For oral administration, compounds were formulated as a solution in water or DMSO:water [10:90] in 5 mL/kg dosing volume and administered orally.
Serial blood samples (about 120-300 μL) were taken from each animal at each of 8 time-points post dose (0.083, 0.25, 0.5, 1, 2, 4, 8 and 24 h) or at each of 12 time-points post dose (0.03, 0.1, 0.17, 0.25, 0.5, 1, 2, 4, 6, 8,12 and 24 h) or pre-dose and at each of 9 time-points post dose (0.25, 0.5, 1, 2, 4, 6, 8, 12 and 24 h). Samples were held on ice for no longer than 30 minutes before centrifugation (10,000 rpm (8,385 g) for 3 minutes; or 5,696 rpm (3,000 g) for 15 minutes) for plasma generation. Plasma was frozen on dry ice prior to bioanalysis. PK parameters were generated from LC-MS/MS data using Dotmatics or Phoenix WinNonlin 6.3 software.

NLRP3 [2] = target: T1, NLRP3 (Homo sapiens, UniProt Q96P20); assay: THP-1 cells pyroptosis assay; assay type: cell-based; design: Seed THP-1 cells (25,000 cells/well) containing 1.0 μg/ml LPS; host or cells: THP-1 cells, LPS-primed, nigericin-stimulated; details: THP-1 cells, 1.0 μg/ml LPS, compound 3 hrs, nigericin 5 μM 1 hr, resazurin readout; read-out: THP IC50
T1 sequence (Q96P20 whole entry): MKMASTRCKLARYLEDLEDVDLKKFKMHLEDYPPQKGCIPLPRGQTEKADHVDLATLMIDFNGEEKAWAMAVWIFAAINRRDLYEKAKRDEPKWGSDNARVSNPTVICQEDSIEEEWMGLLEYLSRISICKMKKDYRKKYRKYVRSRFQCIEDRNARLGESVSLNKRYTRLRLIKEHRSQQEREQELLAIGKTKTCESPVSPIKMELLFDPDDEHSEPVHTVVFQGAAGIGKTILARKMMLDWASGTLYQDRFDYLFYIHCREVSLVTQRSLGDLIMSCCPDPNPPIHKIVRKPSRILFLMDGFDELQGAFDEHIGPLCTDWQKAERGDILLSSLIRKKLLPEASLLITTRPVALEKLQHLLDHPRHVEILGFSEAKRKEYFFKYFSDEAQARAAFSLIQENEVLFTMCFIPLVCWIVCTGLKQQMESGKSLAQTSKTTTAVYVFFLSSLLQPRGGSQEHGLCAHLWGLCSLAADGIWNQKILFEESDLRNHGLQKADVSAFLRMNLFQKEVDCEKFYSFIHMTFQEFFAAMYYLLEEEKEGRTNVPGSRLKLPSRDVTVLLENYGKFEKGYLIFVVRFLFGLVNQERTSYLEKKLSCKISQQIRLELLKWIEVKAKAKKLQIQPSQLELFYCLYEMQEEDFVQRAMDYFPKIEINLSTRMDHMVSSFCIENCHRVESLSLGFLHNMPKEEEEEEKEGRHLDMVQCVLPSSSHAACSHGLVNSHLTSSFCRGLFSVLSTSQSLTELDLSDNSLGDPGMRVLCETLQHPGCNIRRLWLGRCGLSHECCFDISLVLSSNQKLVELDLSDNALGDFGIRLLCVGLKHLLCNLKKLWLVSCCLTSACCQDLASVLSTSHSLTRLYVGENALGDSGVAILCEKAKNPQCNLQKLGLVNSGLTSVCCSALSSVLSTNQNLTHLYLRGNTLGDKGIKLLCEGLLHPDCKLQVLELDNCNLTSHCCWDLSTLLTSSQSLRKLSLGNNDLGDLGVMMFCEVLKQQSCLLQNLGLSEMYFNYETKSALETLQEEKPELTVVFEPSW
How it was run: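 THP-1 cells (25,000/well) in serum-free RPMI with 1.0 μg/ml LPS, treated with compound (8-point half-log dilution, 10 μM top, 0.1% DMSO), then nigericin 5 μM final. Viability read by resazurin (100 μM final, 1-2 h, 37° C) fluorescence Ex 560/Em 590 nm; IC50 from 4-parameter variable-slope fit.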

NLRP3 [3] = target: T1, NLRP3; assay: Human whole blood IL1β release assay; assay type: cell-based; design: Human whole blood in Li-heparin tubes was obtained from healthy donors; from tissue; host or cells: human whole blood from healthy donors, LPS-primed, nigericin-stimulated; details: human whole blood, 1 μg/ml LPS, compound 3 hrs, nigericin 10 μM 1 hr, IL-1β AlphaLisa; read-out: HWB IC50
How it was run: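 Healthy-donor human whole blood (Li-heparin) primed with 1 μg/ml LPS, with compound (8-point half-log, 10 μM top) or 0.1% DMSO for 3 h at 37 °C, then 10 μM nigericin (final) for 1 h. Supernatant IL-1β read by AlphaLISA; IC50 from 4-parameter variable-slope fit.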

[4] = male, Sprague Dawley, plasma, oral administration, read-out: Bioavailability
[5] = male, Sprague Dawley, intravenous administration, rat plasma
[6] = male, Sprague Dawley, intravenous administration, rat plasma, read-out: AUC
[7] = male, Sprague Dawley, oral administration, rat plasma
[8] = male, Sprague Dawley, oral administration, rat plasma, read-out: AUC
[9] = male, Sprague Dawley, oral administration, rat plasma, read-out: Cmax
[10] = male, Sprague Dawley, oral administration, rat plasma, read-out: Tmax
[11] = intravenous administration, rat plasma
[12] = oral administration, rat plasma

A bioavailability [1, 4] of 52.7%, a clearance [1, 5] of 0.156 L/h/kg and a half-life [1, 5] of 3.7 h were found for `CN(C)CCn1ccc(S(=O)(=O)NC(=O)Nc2c3c(cc4c2CCC4)CCC3)n1` [Example 7, 1-(2-(Dimethylamino)ethyl)-N-((1,2,3,5,6,7-hexahydro-s-indacen-4-yl)carbamoyl)-1H-pyrazole-3-sulfonamide] in this work. The AUC [1, 6] was 6.42 µg·h/mL, the Vd [1, 5] was 0.38 L/kg and the CL/F [1, 7] was 0.3 L/h/kg. For the same compound, the half-life [1, 7] was 3 h, the AUC [1, 8] was 15.2 µg·h/mL and the Cmax [1, 9] was 3.25 µg/mL. The Tmax [1, 10] was 1 h, the IC50 (NLRP3 [2]) was < 0.64 µM and the IC50 (NLRP3 [3]) was < 0.4 µM.

A bioavailability [1, 4] of 18.5%, a clearance [1, 5] of 0.066 L/h/kg and a half-life [1, 5] of 2.5 h were found for `CN(C)CC(C)(C)n1ccc(S(=O)(=O)NC(=O)Nc2c3c(cc4c2CCC4)CCC3)n1` [Example 17, 1-(1-(Dimethylamino)-2-methylpropan-2-yl)-N-((1,2,3,5,6,7-hexahydro-s-indacen-4-yl)carbamoyl)-1H-pyrazole-3-sulfonamide] in this work. For the same compound, the AUC [1, 6] was 15.8 µg·h/mL, the Vd [1, 5] was 0.18 L/kg and the CL/F [1, 7] was 0.366 L/h/kg. It also gave a half-life [1, 7] of 2.3 h, an AUC [1, 8] of 8.76 µg·h/mL and a Cmax [1, 9] of 2.81 µg/mL. For the same compound, the Tmax [1, 10] was 0.67 h, the IC50 (NLRP3 [2]) was < 0.16 µM and the IC50 (NLRP3 [3]) was < 1.6 µM.

A clearance [1, 5] of 0.144 L/h/kg, a half-life [1, 5] of 2.9 h and an AUC [1, 6] of 11.3 µg·h/mL were found for `CN1CC[C@H]1Cn1ccc(S(=O)(=O)NC(=O)Nc2c3c(cc4c2CCC4)CCC3)n1` [Example 20, (S)—N-((1,2,3,5,6,7-Hexahydro-s-indacen-4-yl)carbamoyl)-1-((1-methylazetidin-2-yl)methyl)-1H-pyrazole-3-sulfonamide] in this work. The Vd [1, 5] was 0.32 L/kg, the IC50 (NLRP3 [2]) was < 0.16 µM and the IC50 (NLRP3 [3]) was < 0.4 µM.

An AUC [1, 11] of 0.3027 µg·h/mL, a Cl [1, 11] of 3.32 L/h/kg and a T1/2 [1, 11] of 1.6 h were found for `CC(C)n1nc(S(=O)(=O)NC(=O)Nc2c3c(cc4c2CCC4)CCC3)cc1C(=O)N1CCC1` [Example 131, 5-(Azetidine-1-carbonyl)-N-((1,2,3,5,6,7-hexahydro-s-indacen-4-yl)carbamoyl)-1-isopropyl-1H-pyrazole-3-sulfonamide, partial ammonium salt] in this work. The Vdss [1, 11] was 1.66 L/kg, the IC50 (NLRP3 [2]) was < 0.16 µM and the IC50 (NLRP3 [3]) was < 1.6 µM.

An AUC [1, 11] of 0.415 µg·h/mL, a Cl [1, 11] of 2.42 L/h/kg and a T1/2 [1, 11] of 6.4 h were found for `CC(C)c1cc(F)cc(C(C)C)c1NC(=O)NS(=O)(=O)c1cc(C(=O)N2CCC2)n(C)n1` [Example 145, 5-(azetidine-1-carbonyl)-N-((4-fluoro-2,6-diisopropylphenyl)carbamoyl)-1-methyl-1H-pyrazole-3-sulfonamide, sodium salt] in this work. For the same compound, the Vdss [1, 11] was 7.96 L/kg, the IC50 (NLRP3 [2]) was < 0.16 µM and the IC50 (NLRP3 [3]) was < 0.4 µM.

An AUC [1, 11] of 0.2833 µg·h/mL, a Cl [1, 11] of 3.55 L/h/kg and a T1/2 [1, 11] of 3.3 h were found for `CC(C)c1cc(F)cc(C(C)C)c1NC(=O)NS(=O)(=O)c1cc(C(=O)N(C)C)n(C)n1` [Example 160, 3-(N-((4-Fluoro-2,6-diisopropylphenyl)carbamoyl)sulfamoyl)-N,N,1-trimethyl-1H-pyrazole-5-carboxamide, sodium salt] in this work. For the same compound, the Vdss [1, 11] was 4.08 L/kg, the AUC [1, 12] was 0.7697 µg·h/mL and the Cl/F [1, 12] was 6.588 L/h/kg. For the same compound, the Cmax [1, 12] was 0.4947 µg/mL, the T1/2 [1, 12] was 9.7 h and the Tmax [1, 12] was 0.17 h. The bioavailability ([1]; oral administration) was 54.3, the IC50 (NLRP3 [2]) was < 0.64 µM and the IC50 (NLRP3 [3]) was < 0.4 µM.

An AUC [1, 11] of 1.7231 µg·h/mL, a Cl [1, 11] of 1.5 L/h/kg and a T1/2 [1, 11] of 0.1 h were found for `CCN(C)C(=O)c1cc(S(=O)(=O)NC(=O)Nc2c3c(cc4c2CCC4)CCC3)nn1C` [Example 162, N-Ethyl-3-(N-((1,2,3,5,6,7-hexahydro-s-indacen-4-yl)carbamoyl)sulfamoyl)-N,1-dimethyl-1H-pyrazole-5-carboxamide] in this work. The Vdss [1, 11] was 0.24 L/kg, the IC50 (NLRP3 [2]) was < 0.16 µM and the IC50 (NLRP3 [3]) was < 0.8 µM.

With `COc1cc(-c2ccc3c(c2NC(=O)NS(=O)(=O)c2ccn(C4CCN(C)C4)n2)CCC3)ccn1` (centres unmarked) [Example 193, N-((5-(2-Methoxypyridin-4-yl)-2,3-dihydro-1H-inden-4-yl)carbamoyl)-1-(1-methylpyrrolidin-3-yl)-1H-pyrazole-3-sulfonamide, sodium salt] the IC50 (NLRP3 [2]) was < 0.04 µM and the IC50 (NLRP3 [3]) was < 0.4 µM.

For `CN(C)CC(C)(C)n1ccc(S(=O)(=O)NC(=O)Nc2c(-c3ccnc(OC4CC4)c3)ccc3c2CCC3)n1` [Example 194, N-((5-(2-Cyclopropoxypyridin-4-yl)-2,3-dihydro-1H-inden-4-yl)carbamoyl)-1-(1-(dimethylamino)-2-methylpropan-2-yl)-1H-pyrazole-3-sulfonamide, sodium salt], the IC50 (NLRP3 [2]) was < 0.04 µM and the IC50 (NLRP3 [3]) was < 0.4 µM.

In the case of `COc1cc(-c2ccc3c(c2NC(=O)NS(=O)(=O)c2ccn(C(C)(C)C#N)n2)CCC3)ccn1` [Example 195, 1-(2-Cyanopropan-2-yl)-N-((5-(2-methoxypyridin-4-yl)-2,3-dihydro-1H-inden-4-yl)carbamoyl)-1H-pyrazole-3-sulfonamide, sodium salt], the IC50 (NLRP3 [2]) is reported as < 0.04 µM and the IC50 (NLRP3 [3]) is reported as < 0.4 µM.

With `CN(C)CC(C)(C)n1ccc(S(=O)(=O)NC(=O)Nc2c(-c3ccnc(C#N)c3)ccc3c2CCC3)n1` [Example 196, N-((5-(2-Cyanopyridin-4-yl)-2,3-dihydro-1H-inden-4-yl)carbamoyl)-1-(1-(dimethylamino)-2-methylpropan-2-yl)-1H-pyrazole-3-sulfonamide] the IC50 (NLRP3 [2]) was < 0.04 µM and the IC50 (NLRP3 [3]) was < 0.4 µM.

In the case of `CN(C)CC(C)(C)n1ccc(S(=O)(=O)NC(=O)Nc2c(-c3cccnc3)ccc3c2CCC3)n1` [Example 197, 1-(1-(Dimethylamino)-2-methylpropan-2-yl)-N-((5-(pyridin-3-yl)-2,3-dihydro-1H-inden-4-yl)carbamoyl)-1H-pyrazole-3-sulfonamide], the IC50 (NLRP3 [2]) is reported as < 0.64 µM and the IC50 (NLRP3 [3]) is reported as < 0.4 µM.

For `C[C@H](CN(C)C)n1ccc(S(=O)(=O)NC(=O)Nc2c3c(cc4c2CCC4)CCC3)n1` [Example 198, (R)-1-(1-(Dimethylamino)propan-2-yl)-N-((1,2,3,5,6,7-hexahydro-s-indacen-4-yl)carbamoyl)-1H-pyrazole-3-sulfonamide], the IC50 (NLRP3 [2]) was < 0.64 µM and the IC50 (NLRP3 [3]) was < 0.8 µM.

With `CN(C)CCn1ncc(S(=O)(=O)NC(=O)Nc2c3c(cc4c2CCC4)CCC3)n1` [Example 199, 2-(2-(Dimethylamino)ethyl)-N-((1,2,3,5,6,7-hexahydro-s-indacen-4-yl)carbamoyl)-2H-1,2,3-triazole-4-sulfonamide] the IC50 (NLRP3 [2]) was < 0.64 µM and the IC50 (NLRP3 [3]) was < 1.6 µM.

For `CN(C)CC1(n2ccc(S(=O)(=O)NC(=O)Nc3c4c(cc5c3CCC5)CCC4)n2)CC1` [Example 202, 1-(1-((Dimethylamino)methyl)cyclopropyl)-N-((1,2,3,5,6,7-hexahydro-s-indacen-4-yl)carbamoyl)-1H-pyrazole-3-sulfonamide], the IC50 (NLRP3 [2]) was < 0.16 µM and the IC50 (NLRP3 [3]) was < 0.4 µM.

With `CNCC(C)(C)n1ccc(S(=O)(=O)NC(=O)Nc2c3c(cc4c2CCC4)CCC3)n1` [Example 204, N-((1,2,3,5,6,7-Hexahydro-s-indacen-4-yl)carbamoyl)-1-(2-methyl-1-(methylamino)propan-2-yl)-1H-pyrazole-3-sulfonamide, sodium salt] the IC50 (NLRP3 [2]) was < 0.16 µM and the IC50 (NLRP3 [3]) was < 0.8 µM.

In the case of `CN1CCC(n2ccc(S(=O)(=O)NC(=O)Nc3c4c(cc5c3CCC5)CCC4)n2)C1` (centres unmarked) [Example 205, N-((1,2,3,5,6,7-Hexahydro-s-indacen-4-yl)carbamoyl)-1-(1-methylpyrrolidin-3-yl)-1H-pyrazole-3-sulfonamide, sodium salt], the IC50 (NLRP3 [2]) is reported as < 0.04 µM and the IC50 (NLRP3 [3]) is reported as < 1.6 µM.
